Experimental findings from patent US7928139B2 (Amgen Inc., priority 2006, dated 2011) are described below.

Structures are written as SMILES.

The assay addresses HIF PHD2 (Homo sapiens, UniProt Q9GZT9). Kind of assay: PHD2 inhibition assay (TR-FRET, VCB-Eu detection of hydroxylated P564-HIF1α peptide). In kind it is biochemical. The note with it: 2 nM PHD2, 100 nM P564-HIF1α peptide, 0.25 μM 2-oxoglutarate, 100 μM FeCl2, 2 mM ascorbic acid. Put shortly: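 Human PHD2 (2 nM final) preincubated 1 h at room temperature with compound and 100 μM FeCl2 in pH 6 MES buffer, 5% DMSO final. Reaction with 100 nM biotinylated P564-HIF1α peptide, 2 mM ascorbate and 0.25 μM 2-oxoglutarate for 1 h, stopped with succinate. Hydroxylation read by TR-FRET (VCB-Eu/streptavidin-APC, 655/615 nm); IC50 from 4-parameter fit of percent of control.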

Sequence of HIF PHD2 (Q9GZT9 whole entry): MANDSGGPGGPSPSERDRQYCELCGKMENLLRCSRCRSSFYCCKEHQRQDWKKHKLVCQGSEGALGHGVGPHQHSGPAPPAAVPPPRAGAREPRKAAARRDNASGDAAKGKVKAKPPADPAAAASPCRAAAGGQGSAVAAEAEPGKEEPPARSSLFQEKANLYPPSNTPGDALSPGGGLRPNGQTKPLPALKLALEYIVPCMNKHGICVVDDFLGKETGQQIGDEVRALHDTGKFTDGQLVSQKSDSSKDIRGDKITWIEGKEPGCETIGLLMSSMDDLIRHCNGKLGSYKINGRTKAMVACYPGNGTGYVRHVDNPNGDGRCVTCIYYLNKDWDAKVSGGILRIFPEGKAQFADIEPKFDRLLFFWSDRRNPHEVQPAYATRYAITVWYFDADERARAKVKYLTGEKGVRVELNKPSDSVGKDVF

Regarding `O=C(O)CNC(=O)C1=C(O)c2cc(Cl)ccc2[C@@]2(CCCOC2)C1=O` [Example 77, N-(((1R)-6-Chloro-4-hydroxy-2-oxo-5′,6′-dihydro-spiro[naphthalene-1,3′-pyran]-3-yl)carbonyl)glycine], the IC50 (in general, the point on the concentration scale where inhibition reaches its midpoint) was less than 100 nM.

`CC[C@]1(C)C(=O)C(C(=O)NCC(=O)O)=C(O)c2cc(Cl)ccc21` [Example 79, N-(((1S)-6-Chloro-4-hydroxy-1-ethyl-1-methyl-2-oxo-naphthalen-3-yl)carbonyl)glycine] displayed a concentration for half-maximal inhibition (IC50) of 100 to 500 nM.

In turn, `O=C(O)CNC(=O)C1=C(O)c2cc(Cl)ccc2C2(CCC(=O)CC2)C1=O` [Example 80, N-((6′-Chloro-4′-hydroxy-2′,4-dioxo-spiro[cyclohexane-1,1′-naphthalen]-3′-yl)carbonyl)glycine] had an IC50 of less than 100 nM.

Take `CC1(C)C(=O)C(C(=O)NCC(=O)O)=C(O)c2c(F)cccc21` [Example 81, N-((5-Fluoro-4-hydroxy-1,1-dimethyl-2-oxo-naphthalen-3-yl)carbonyl)glycine]: the half-inhibitory concentration (IC50) is less than 100 nM.

In turn, `CC1(C)C(=O)C(C(=O)NCC(=O)O)=C(O)c2c(Cl)cccc21` [Example 82, N-((5-Chloro-4-hydroxy-1,1-dimethyl-2-oxo-naphthalen-3-yl)carbonyl)glycine] yielded a half-inhibitory concentration (IC50) of less than 100 nM.

For the compound `O=C(O)CNC(=O)C1=C(O)c2cccc(F)c2C2(CCOCC2)C1=O` [Example 83, N-((8-Fluoro-4-hydroxy-2-oxo-2′,3′,5′,6′-tetrahydro-spiro[naphthalene-1,4′-pyran]-3-yl)carbonyl)glycine], the 50% inhibitory concentration (IC50) is less than 100 nM.

`CC1(C#N)C(=O)C(C(=O)NCC(=O)O)=C(O)c2cc(Cl)ccc21` (stereo not shown) [Example 84, N-((6-Chloro-1-cyano-4-hydroxy-1-methyl-2-oxo-naphthalen-3-yl)carbonyl)glycine] gave a concentration for half-maximal inhibition (IC50) of less than 100 nM.

Consider `C[C@@]1(C#N)C(=O)C(C(=O)NCC(=O)O)=C(O)c2cc(Cl)ccc21` [Example 85, N-(((1R)-6-Chloro-1-cyano-4-hydroxy-1-methyl-2-oxo-naphthalen-3-yl)carbonyl)glycine], for which the IC50 was less than 100 nM.

In turn, `C[C@]1(C#N)C(=O)C(C(=O)NCC(=O)O)=C(O)c2cc(Cl)ccc21` [Example 86, N-(((1S)-6-Chloro-1-cyano-4-hydroxy-1-methyl-2-oxo-naphthalen-3-yl)carbonyl)glycine] yielded a 50% inhibitory concentration (IC50) of less than 100 nM.

`C[C@@]1(C#N)C(=O)C(C(=O)NCC(=O)O)=C(O)c2ccccc21` [Example 87, N-(((1R)-1-Cyano-4-hydroxy-1-methyl-2-oxo-naphthalen-3-yl)carbonyl)glycine]: the concentration for half-maximal inhibition (IC50) was less than 100 nM.

As for `C[C@]1(C#N)C(=O)C(C(=O)NCC(=O)O)=C(O)c2ccccc21` [Example 88, N-(((1S)-1-Cyano-4-hydroxy-1-methyl-2-oxo-naphthalen-3-yl)carbonyl)glycine], the half-inhibitory concentration (IC50) was less than 100 nM.

The compound `CC1(C)C(=O)C(C(=O)NCC(=O)O)=C(O)c2cccc(Cl)c21` [Example 89, N-((8-Chloro-4-hydroxy-1,1-dimethyl-2-oxo-naphthalen-3-yl)carbonyl)glycine] displayed an IC50 of less than 100 nM.

For `CC1(C)C(=O)C(C(=O)NCC(=O)O)=C(O)c2ccc(Cl)c(F)c21` [Example 90, N-((7-Chloro-8-fluoro-4-hydroxy-1,1-dimethyl-2-oxo-naphthalen-3-yl)carbonyl)glycine], the half-maximal inhibitory concentration (IC50) is less than 100 nM.

In turn, `O=C(O)CNC(=O)C1=C(O)c2cc(Cl)ccc2C2(CCN(C(=O)c3ccccc3)CC2)C1=O` [Example 91, N-((6-Chloro-4-hydroxy-2-oxo-1′-(phenylcarbonyl)-spiro[naphthalene-1,4′-piperidin]-3-yl)carbonyl)glycine] returned a concentration for half-maximal inhibition (IC50) of less than 100 nM.

Compound `CC1(C)C(=O)C(C(=O)NCC(=O)O)=C(O)c2cc(Cl)c(F)cc21` [Example 92, N-((6-Chloro-7-fluoro-4-hydroxy-1,1-dimethyl-2-oxo-naphthalen-3-yl)carbonyl)glycine] yielded a concentration for half-maximal inhibition (IC50) of less than 100 nM.

`O=C(O)CNC(=O)C1=C(O)c2cc(Cl)ccc2C2(CCC2)C1=O` [Example 93, N-((6′-Chloro-4′-hydroxy-2′-oxo-spiro[cyclobutane-1,1′-naphthalen]-3′-yl)carbonyl)glycine]: the IC50 was less than 100 nM.

In turn, `O=C(O)CNC(=O)C1=C(O)c2ccccc2C2(CCOCC2)C1=O` [Example 94, N-((4-hydroxy-2-oxo-2′,3′,5′,6′-tetrahydro-spiro[naphthalene-1,4′-pyran]-3-yl)carbonyl)glycine] displayed an IC50 of less than 100 nM.

Compound `O=C(N[C@@H](CO)C(=O)O)C1=C(O)c2cc(Cl)ccc2C2(CCOCC2)C1=O` [Example 95, N-((6-Chloro-4-hydroxy-2-oxo-2′,3′,5′,6′-tetrahydro-spiro[naphthalene-1,4′-pyran]-3-yl)carbonyl)-L-serine] showed a half-inhibitory concentration (IC50) of 100 to 500 nM.

Consider `CC1(C)C(=O)C(C(=O)NCC(=O)O)=C(O)c2cc(F)c(Cl)cc21` [Example 96, N-((7-Chloro-6-fluoro-4-hydroxy-1,1-dimethyl-2-oxo-naphthalen-3-yl)carbonyl)glycine], for which the 50% inhibitory concentration (IC50) was less than 100 nM.

Compound `O=C(O)CNC(=O)C1=C(O)c2cc(F)c(Cl)cc2C2(CCOCC2)C1=O` [Example 97, N-((7-Chloro-6-fluoro-4-hydroxy-2-oxo-2′,3′,5′,6′-tetrahydro-spiro[naphthalene-1,4′-pyran]-3-yl)carbonyl)glycine] returned a half-maximal inhibitory concentration (IC50) of less than 100 nM.

Take `COC/C=C/c1ccc2c(c1)C(C)(C)C(=O)C(C(=O)NCC(=O)O)=C2O` [Example 98, N-((4-Hydroxy-1,1-dimethyl-7-((1E)-3-(methyloxy)-1-propen-1-yl)-2-oxo-naphthalen-3-yl)carbonyl)glycine]: the half-inhibitory concentration (IC50) was less than 100 nM.

`COCCCc1ccc2c(c1)C(C)(C)C(=O)C(C(=O)NCC(=O)O)=C2O` [Example 99, N-((4-Hydroxy-1,1-dimethyl-7-(3-(methyloxy)propyl)-2-oxo-naphthalen-3-yl)carbonyl)glycine]: the half-inhibitory concentration (IC50) was less than 100 nM.

As to `CNC(=O)C1=C(O)c2cc(Cl)ccc2C(C)(C)C1=O` [Example 100, 6-Chloro-4-hydroxy-N,1,1-trimethyl-2-oxo-naphthalene-3-carboxamide], the half-maximal inhibitory concentration (IC50) was more than 10000 nM.

For the compound `CC1(C)C(=O)C(C(N)=O)=C(O)c2cc(Cl)ccc21` [Example 101, 6-Chloro-4-hydroxy-1,1-dimethyl-2-oxo-naphthalene-3-carboxamide], the half-inhibitory concentration (IC50) was more than 10000 nM.

For the compound `C[C@@H](NC(=O)C1=C(O)c2cc(Cl)ccc2C(C)(C)C1=O)C(=O)O` [Example 102, N-((6-chloro-4-hydroxy-1,1-dimethyl-2-oxo-naphthalen-3-yl)carbonyl)-D-alanine], the IC50 was more than 10000 nM.

`CC1(C)C(=O)C(C(=O)NCC(=O)O)=C(O)c2cccnc21` [Example 103, 2-(5-Hydroxy-8,8-dimethyl-7-oxo-7,8-dihydroquinoline-6-carboxamido)acetic acid] came in with an IC50 of less than 100 nM.

`CC1(C)C(=O)C(C(=O)CCC(=O)O)=C(O)c2cc(Br)ccc21` [Example 104, 4-(7-Bromo-1-hydroxy-4,4-dimethyl-3-oxo-3,4-dihydronaphthalen-2-yl)-4-oxobutanoic acid] had a half-maximal inhibitory concentration (IC50) of less than 100 nM.

Compound `CC1(C)C(=O)C(C(=O)NCC(=O)O)=C(O)c2ccncc21` [Example 105, 2-(5-Hydroxy-8,8-dimethyl-7-oxo-7,8-dihydroisoquinoline-6-carboxamido)acetic acid] displayed a half-inhibitory concentration (IC50) of less than 100 nM.
